From patent US20060025390A1, “Treatment of hormone allergy and related symptoms and disorders” (priority 2004, published 2006)

How the values were obtained:
[1] = system: serum IgE anti-estrogen antibodies; experiment: ELISA binding of IgE estrogen antibodies to different hormones in solid phase; parameters: species or system human; settings: for IgE anti-estrogen binding: relative to estrogen, over three sera; for IgE binding (optical density): hormone in solid phase, 405 nm; for IgE % reaction: relative to estrogen = 100
Procedure: (§1) The ELISA inhibition method was used to determine specificity and cross-reactivity between different hormones and to ensure the degree of human IgG, IgM and IgE estrogen or progesterone binding to estrogen or progesterone in solid phase. […] 100 μl of sera from three different patients with high IgG, IgM or IgE antibodies against 17-α-hydroxyprogesterone was added to all wells. After shaking and incubation for 1 hr at room temperature, addition of enzyme labeled anti-human IgG, IgM or IgE, repeat of incubation, washing, and addition of substrate, color development was measured at 405 nm. Results were calculated as percentage of anti-17-α-hydroxyprogesterone binding to 17-α-hydroxyprogesterone and other hormones. Also, anti-estrogen binding to estrogen and other hormones in solid phase by progesterone in liquid phase was performed and calculated in a similar manner.
(§2) Human sera containing 17-α-hydroxyprogesterone IgG-, IgM- and IgE-binding antibodies were reacted against progesterone, estrogen, hydrocortisone and cholesterol. In comparison to 100% binding of anti-17-α-hydroxyprogesterone-binding to 17-α-hydroxyprogesterone, the IgG anti-17-α-hydroxyprogesterone-binding to progesterone, estrogen, hydrocortisone and cholesterol was 69-77%, 25-30%, 39-53%, and less than 10% respectively (Table 4). The % binding of serum IgM and IgE anti-17-α-hydroxyprogesterone to 17-1-hydroxyprogesterone, progesterone, estrogen, hydrocortisone and cholesterol was similar to the binding of IgG. This binding of anti-17-α-hydroxyprogesterone to progesterone was the highest, followed by hydrocortisone, then estrogen, to almost no binding with cholesterol. Similar to this, human sera with IgG, IgM and IgE binding antibodies against estrogen were reacted with progesterone, 17-α-hydroxyprogesterone, hydrocortisone and cholesterol, in the presence of estrogen.

[2] = system: serum IgG anti-estrogen antibodies; experiment: ELISA binding of IgG estrogen antibodies to different hormones in solid phase; parameters: species or system human; settings: for IgG anti-estrogen binding: relative to estrogen, over three sera; for IgG binding (optical density): hormone in solid phase, 405 nm; for IgG % reaction: relative to estrogen = 100
Procedure: as §1, §2

[3] = system: serum IgM anti-17-α-hydroxyprogesterone antibodies; experiment: ELISA binding of IgM 17-α-hydroxyprogesterone antibodies to different hormones in solid phase; parameters: species or system human; settings: for IgM binding (optical density): hormone in solid phase, 405 nm; for IgM % reaction: relative to 17-α-hydroxyprogesterone = 100
Procedure: as §1, §2

[4] = system: serum IgG anti-17-α-hydroxyprogesterone antibodies; experiment: ELISA binding of IgG 17-α-hydroxyprogesterone antibodies to different hormones in solid phase; parameters: species or system human; settings: for IgG anti-17-α-hydroxyprogesterone binding: in comparison to 100% binding to 17-α-hydroxyprogesterone, over three sera; for IgG binding (optical density): hormone in solid phase, 405 nm; for IgG % reaction: relative to 17-α-hydroxyprogesterone = 100
Procedure: as §1, §2

[5] = system: serum IgM anti-estrogen antibodies; experiment: ELISA binding of IgM estrogen antibodies to different hormones in solid phase; parameters: species or system human; settings: for IgM anti-estrogen binding: relative to estrogen, over three sera; for IgM binding (optical density): hormone in solid phase, 405 nm; for IgM % reaction: relative to estrogen = 100
Procedure: as §1, §2

[6] = system: serum IgE anti-17-α-hydroxyprogesterone antibodies; experiment: ELISA binding of IgE 17-α-hydroxyprogesterone antibodies to different hormones in solid phase; parameters: species or system human; settings: for IgE binding (optical density): hormone in solid phase, 405 nm; for IgE % reaction: relative to 17-α-hydroxyprogesterone = 100
Procedure: as §1, §2

[7] = system: serum IgG anti-estrogen antibodies; experiment: Competition ELISA: absorption of serum IgG anti-estrogen with specific and non-specific antigens; format: binding, human; settings: for inhibition of anti-estrogen binding to estrogen (IgG): antigen in liquid phase, over the three sera; for IgG level after absorption: absorption with 250 μg/mL, optical density 405 nm
Procedure: (§3) For this, microtiter plates were coated with hormones and blocked by the addition of 2% BSA in PBST. 100 μl of serum diluent buffer was added to all wells. […] After 60 minutes incubation 100 μl serum anti-estrogen or anti-progesterone was added to all wells. […] Results were calculated as percentage of inhibition in antigen-antibody reaction.
(§4) To examine whether antibodies to estrogen or progesterone are specific or cross-reactive, we performed competition ELISA by adding specific and non-specific antigens in liquid phase and examined prevention of serum antibody binding to the antigen in solid phase. […] For IgE anti-estrogen, this inhibition by estrogen-BSA was between 54-62%, and with progesterone-BSA, from 37-43%. […] This cross-reaction between estrogen and progesterone antibodies may be due to structural similarities between these two hormones.

[8] = system: serum IgE anti-estrogen antibodies; experiment: Competition ELISA: absorption of serum IgE anti-estrogen with specific and non-specific antigens; format: binding, human; settings: for inhibition of IgE anti-estrogen binding: antigen in liquid phase, over the three sera; for IgE level after absorption: absorption with 250 μg/mL, optical density 405 nm
Procedure: as §3, §4

[9] = serum sample 1, before absorption 1.83
[10] = serum sample 2, before absorption 1.25
[11] = serum sample 3, before absorption 0.76
[12] = serum sample 1, before absorption 2.15
[13] = serum sample 2, before absorption 1.66
[14] = serum sample 3, before absorption 1.34

IgE binding (optical density) ([1]; sample 1)	IgE binding (optical density) ([1]; sample 2)	IgE % reaction ([1]; sample 2)	IgE binding (optical density) ([1]; sample 3)	IgE % reaction ([1]; sample 3)	IgG binding (optical density) ([2]; sample 1)	IgG binding (optical density) ([2]; sample 2)	IgG binding (optical density) ([2]; sample 3)	IgM binding (optical density) ([3]; sample 1)	IgM binding (optical density) ([3]; sample 2)	IgM binding (optical density) ([3]; sample 3)	IgG anti-17-α-hydroxyprogesterone binding [4]	IgG binding (optical density) ([4]; sample 1)	IgG % reaction ([4]; sample 1)	IgG binding (optical density) ([4]; sample 2)	IgG binding (optical density) ([4]; sample 3)	IgM binding (optical density) ([5]; sample 1)	IgM binding (optical density) ([5]; sample 2)	IgM % reaction ([5]; sample 2)	IgM binding (optical density) ([5]; sample 3)	Molecule	also measured
0.15	0.21	−14%	0.28	−17%	0.12	0.19	0.15	0.18	0.19	0.15	less than 10%	0.21	−13%	0.12	0.17	0.13	0.25	−12%	0.24	CC(C)CCC[C@@H](C)[C@H]1CC[C@H]2[C@@H]3CC=C4C[C@@H](O)CC[C@]4(C)[C@H]3CC[C@]12C [C, Cholesterol]	IgE anti-estrogen binding [1]: not significant; IgG anti-estrogen binding [2]: not significant; IgM anti-estrogen binding [5]: not significant; IgM % reaction ([5]; sample 3): −18%; IgE binding (optical density) ([6]; sample 1): 0.2; IgE binding (optical density) ([6]; sample 2): 0.23; IgE % reaction ([6]; sample 2): −10%; IgE binding (optical density) ([6]; sample 3): 0.18
0.17	0.29	−19%	0.25	−16%	0.15	0.31	0.18	0.47	0.5	0.51	39-53%	0.69	−43%	0.37	0.36	0.16	0.44	−21%	0.23	C[C@]12CCC(=O)C=C1CC[C@@H]1[C@@H]2[C@@H](O)C[C@@]2(C)[C@H]1CC[C@]2(O)C(=O)CO [HC, Hydrocortisone]	IgE anti-estrogen binding [1]: not significant; IgG anti-estrogen binding [2]: not significant; IgG % reaction ([2]; sample 2): −17%; IgM % reaction ([3]; sample 1): −36%; IgM % reaction ([3]; sample 2): −39%; IgM % reaction ([3]; sample 3): −55%; IgG % reaction ([4]; sample 2): −39%; IgG % reaction ([4]; sample 3): −53%; IgM anti-estrogen binding [5]: not significant; IgM % reaction ([5]; sample 3): −18%; IgE binding (optical density) ([6]; sample 1): 0.58; IgE % reaction ([6]; sample 1): −40%; IgE binding (optical density) ([6]; sample 2): 1.2; IgE % reaction ([6]; sample 2): −50%; IgE binding (optical density) ([6]; sample 3): 0.68; IgE % reaction ([6]; sample 3): −39%
0.22	0.65	−43%	0.73	−46%	0.42	0.75	0.52	1.3	1.2	0.92	100%	1.6	−100%	0.95	0.68	0.34	0.88	−42%	0.59	CC(=O)[C@@]1(O)CC[C@H]2[C@@H]3CCC4=CC(=O)CC[C@]4(C)[C@H]3CC[C@@]21C [HP, 17-α-hydroxy-progesterone]	IgE % reaction ([1]; sample 1): −28%; IgG % reaction ([2]; sample 1): −35%; IgG % reaction ([2]; sample 2): −42%; IgG % reaction ([2]; sample 3): −57%; IgM % reaction ([3]; sample 1): −100%; IgM % reaction ([3]; sample 2): −100%; IgM % reaction ([3]; sample 3): −100%; IgG % reaction ([4]; sample 2): −100%; IgG % reaction ([4]; sample 3): −100%; IgM % reaction ([5]; sample 1): −38%; IgM % reaction ([5]; sample 3): −45%; IgE binding (optical density) ([6]; sample 1): 1.45; IgE % reaction ([6]; sample 1): −100%; IgE binding (optical density) ([6]; sample 2): 2.4; IgE % reaction ([6]; sample 2): −100%; IgE binding (optical density) ([6]; sample 3): 1.1; IgE % reaction ([6]; sample 3): −100%
–	–	–	–	–	–	–	–	–	–	–	–	–	–	–	–	–	–	–	–	bovine serum albumin [BSA]	inhibition of anti-estrogen binding to estrogen (IgG) [7]: did not significantly absorb; IgG level after absorption [7, 9]: 1.79; IgG level after absorption [7, 10]: 1.13; IgG level after absorption [7, 11]: 0.81; inhibition of IgE anti-estrogen binding [8]: did not significantly absorb; IgE level after absorption [8, 12]: 2.24; IgE level after absorption [8, 13]: 1.53; IgE level after absorption [8, 14]: 1.26
–	–	–	–	–	–	–	–	–	–	–	–	–	–	–	–	–	–	–	–	myelin basic protein (protein, UniProt P02686 1-304, looked up) Myelin basic protein: MGNHAGKRELNAEKASTNSETNRGESEKKRNLGELSRTTSEDNEVFGEADANQNNGTSSQDTAVTDSKRTADPKNAWQDAHPADPGSRPHLIRLFSRDAPGREDNTFKDRPSESDELQTIQEDSAATSESLDVMASQKRPSQRHGSKYLATASTMDHARHGFLPRHRDTGILDSIGRFFGGDRGAPKRGSGKDSHHPARTAHYGSLPQKSHGRTQDENPVVHFFKNIVTPRTPPPSQGKGRGLSLSRFSWGAEGQRPGFGYGGRASDYKSAHKGFKGVDAQGTLSKIFKLGGRDSRSGSPMARR	inhibition of anti-estrogen binding to estrogen (IgG) [7]: did not significantly absorb; IgG level after absorption [7, 9]: 1.67; IgG level after absorption [7, 10]: 1.13; IgG level after absorption [7, 11]: 0.68; inhibition of IgE anti-estrogen binding [8]: did not significantly absorb; IgE level after absorption [8, 12]: 2.05; IgE level after absorption [8, 13]: 1.73; IgE level after absorption [8, 14]: 1.11
